# ChEMBL document CHEMBL1201862, “PubChem BioAssay data set” (2004)
# Activity calls are given as the source filed them.
# What was measured:
# [1] = target: E3 ubiquitin-protein ligase Mdm2 (Homo sapiens, UniProt Q00987); assay: enhancers of MDM2-luciferase reporter signal, concentration-effect titration, project on inhibitors of MDM2 ubiquitin ligase, cellular assay, luminescent readout, 384-well plate format (AID 1394); format: functional;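 note: MDM2 E3 inhibitors raise luminescence so EC50 is for signal enhancement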
# BJ [2] = assay: cells; format: functional, cell-based; conditions: Homo sapiens
# [3] = target: T1, Hepatocyte nuclear factor 4-alpha (Homo sapiens, UniProt P41235); format: functional, cell-based;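 note: biochemical luminescence-based dose-response counterscreen measuring inhibition of HNF4 dimerization, run alongside a screen for blockers of ABHD5–perilipin-5 interaction; split luciferase complementation of HNF4 fusion proteins in cell lysate measuring dimerization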
# T1 sequence (P41235 whole entry): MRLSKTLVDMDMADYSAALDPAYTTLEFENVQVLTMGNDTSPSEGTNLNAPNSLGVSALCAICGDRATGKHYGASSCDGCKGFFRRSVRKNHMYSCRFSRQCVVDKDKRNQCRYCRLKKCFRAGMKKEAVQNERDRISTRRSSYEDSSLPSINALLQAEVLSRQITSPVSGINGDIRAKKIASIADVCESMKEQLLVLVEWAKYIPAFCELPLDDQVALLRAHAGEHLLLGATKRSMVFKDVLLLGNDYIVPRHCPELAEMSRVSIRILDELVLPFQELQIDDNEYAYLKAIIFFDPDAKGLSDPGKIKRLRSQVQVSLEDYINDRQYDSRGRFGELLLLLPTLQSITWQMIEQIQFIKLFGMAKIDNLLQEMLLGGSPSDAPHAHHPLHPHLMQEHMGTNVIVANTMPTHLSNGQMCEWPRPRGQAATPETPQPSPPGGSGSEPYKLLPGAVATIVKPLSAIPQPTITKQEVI
# [4] = inhibitors of firefly luciferase expression or activity, dose response, H4 neuroglioma cells, luminescence (AID 1990); format: functional, cell-based
# BJ [5] = assay: cytotoxicity toward Ras-transformed BJeLR fibroblasts, dose response, cell-based, alamar blue fluorescence, cherrypicked samples (AID 2631); format: functional; conditions: Homo sapiens;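 note: confirmatory dose-response assay in RAS-dependent BJ fibroblasts engineered with TERT, LT and ST, with cytotoxicity read by fluorescence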
# [6] = cytotoxicity in HEK-293T cells, dose response, cytotoxicity control for TCR NF-kB inhibitor project, luminescence, T-cell screen hits (AID 489026); format: functional, cell-based;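 note: cells exposed to compound about 14 hours before the viability readout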
# [7] = Luminescence Cell-Based Dose Response HTS to Identify Inhibitors of 5'UTR Stem-Loop Driven Prion Protein mRNA Translation in H4 Neuroglioblastoma Cells. [Related pubchem assays: 1827 (Project Summary), 1813 (Primary HTS)]; format: functional
# HeLa = assay: Cytotoxicity counterscreen assay for transcriptional activators of heat shock protein 70 (Hsp70). [Related pubchem assays: 1203, 1252 ]; format: functional; conditions: Homo sapiens;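 note: cells exposed to compound for 16 hours before readout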
# [8] = Luminescent dose response cell-based high throughput screening assay for inhibitors of the Janus kinase 2 mutant JAK2V617F. [Related pubchem assays: 1446 (Primary screen.), 1521 (Confirmation assay.), 1486 (Counter screen.)]; format: functional
# BJ [9] = assay: cytotoxicity toward BJ-TERT fibroblasts, dose response, cell-based, RAS-independent, luminescence (AID 1933); format: functional; conditions: Homo sapiens
# [10] = inhibitors of SNCA 5'UTR-driven reporter translation, confirmation, H4 neuroglioma cells, luminescence (AID 1988); format: functional, cell-based
# BJ [11] = assay: cytotoxicity toward BJ-TERT-LT-ST fibroblasts, dose response, cell-based, RAS-independent, luminescence (AID 1935); format: functional; conditions: Homo sapiens;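 note: BJ fibroblasts immortalized with TERT plus LT and ST oncogenes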
# INS1 = assay: beta cell apoptosis inhibitors, cytokine rescue, dose response, luminescence, retest (AID 449756); format: functional, cell-based; conditions: Rattus norvegicus;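 note: cell death triggered by IL-1 beta plus TNF-alpha plus IFN-gamma mixture; protective hits raise ATP signal compared with cytokine alone wells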
# [12] = target: E3 ubiquitin-protein ligase Mdm2/Protein Mdm4 (Homo sapiens, UniProt O15151+Q00987); assay: Mdm2-MdmX interaction inhibitors, dose response, luminescence detection (AID 504593); format: functional
# [13] = cytotoxicity toward DRD oncogenic fibroblasts, dose response, cell-based, non-viral oncogenic, luminescence (AID 1934); format: functional; conditions: Homo sapiens
# [14] = target: Glyceraldehyde-3-phosphate dehydrogenase (Homo sapiens, UniProt P04406)
# [15] = target: T2, Tyrosine-protein phosphatase non-receptor type 7 (Homo sapiens, UniProt P35236); assay: redox-dependent HePTP inhibition, mechanism study, biochemical, fluorescence (AID 2068); format: functional
# T2 sequence (P35236 whole entry): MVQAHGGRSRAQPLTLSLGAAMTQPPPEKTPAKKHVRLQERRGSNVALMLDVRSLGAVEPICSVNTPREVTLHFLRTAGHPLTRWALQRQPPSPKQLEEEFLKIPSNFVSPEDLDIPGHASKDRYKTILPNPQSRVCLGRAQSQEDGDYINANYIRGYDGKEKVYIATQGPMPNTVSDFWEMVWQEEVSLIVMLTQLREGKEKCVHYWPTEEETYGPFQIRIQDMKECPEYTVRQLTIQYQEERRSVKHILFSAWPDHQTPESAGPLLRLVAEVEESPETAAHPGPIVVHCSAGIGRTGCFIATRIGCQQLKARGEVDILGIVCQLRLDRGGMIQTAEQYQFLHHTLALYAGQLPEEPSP
# [16] = target: T3, Dual specificity protein phosphatase 6 (Rattus norvegicus, UniProt Q64346); format: functional
# T3 sequence (Q64346 whole entry): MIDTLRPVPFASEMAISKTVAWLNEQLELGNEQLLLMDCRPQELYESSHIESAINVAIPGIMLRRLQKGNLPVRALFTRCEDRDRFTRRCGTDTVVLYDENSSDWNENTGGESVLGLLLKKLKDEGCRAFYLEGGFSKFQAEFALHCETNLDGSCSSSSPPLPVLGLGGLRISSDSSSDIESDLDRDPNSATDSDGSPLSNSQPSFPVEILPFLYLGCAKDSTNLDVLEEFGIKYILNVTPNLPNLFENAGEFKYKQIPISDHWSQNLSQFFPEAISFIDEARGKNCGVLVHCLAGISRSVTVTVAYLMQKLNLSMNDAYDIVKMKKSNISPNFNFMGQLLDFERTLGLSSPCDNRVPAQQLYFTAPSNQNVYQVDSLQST
# [17] = target: T4, Dual specificity protein phosphatase 3 (Homo sapiens, UniProt P51452); assay: MOA VHR1 Fluorescent secondary assay for identification of redox-state modulating compounds. [Related pubchem assays (depositor defined):AID1654, AID1661, AID1878, AID1957]
# [18] = target: T5, Short transient receptor potential channel 4 (Mus musculus, UniProt Q9QUQ5); assay: mouse TRPC4 channel inhibitors, dose response, cell-based, HEK293 TRPC4/mu-opioid, Fluo-4 calcium (AID 434942); format: functional;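 note: potency of inhibitors blocking the TRPC4 calcium response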
# T5 sequence (Q9QUQ5 whole entry): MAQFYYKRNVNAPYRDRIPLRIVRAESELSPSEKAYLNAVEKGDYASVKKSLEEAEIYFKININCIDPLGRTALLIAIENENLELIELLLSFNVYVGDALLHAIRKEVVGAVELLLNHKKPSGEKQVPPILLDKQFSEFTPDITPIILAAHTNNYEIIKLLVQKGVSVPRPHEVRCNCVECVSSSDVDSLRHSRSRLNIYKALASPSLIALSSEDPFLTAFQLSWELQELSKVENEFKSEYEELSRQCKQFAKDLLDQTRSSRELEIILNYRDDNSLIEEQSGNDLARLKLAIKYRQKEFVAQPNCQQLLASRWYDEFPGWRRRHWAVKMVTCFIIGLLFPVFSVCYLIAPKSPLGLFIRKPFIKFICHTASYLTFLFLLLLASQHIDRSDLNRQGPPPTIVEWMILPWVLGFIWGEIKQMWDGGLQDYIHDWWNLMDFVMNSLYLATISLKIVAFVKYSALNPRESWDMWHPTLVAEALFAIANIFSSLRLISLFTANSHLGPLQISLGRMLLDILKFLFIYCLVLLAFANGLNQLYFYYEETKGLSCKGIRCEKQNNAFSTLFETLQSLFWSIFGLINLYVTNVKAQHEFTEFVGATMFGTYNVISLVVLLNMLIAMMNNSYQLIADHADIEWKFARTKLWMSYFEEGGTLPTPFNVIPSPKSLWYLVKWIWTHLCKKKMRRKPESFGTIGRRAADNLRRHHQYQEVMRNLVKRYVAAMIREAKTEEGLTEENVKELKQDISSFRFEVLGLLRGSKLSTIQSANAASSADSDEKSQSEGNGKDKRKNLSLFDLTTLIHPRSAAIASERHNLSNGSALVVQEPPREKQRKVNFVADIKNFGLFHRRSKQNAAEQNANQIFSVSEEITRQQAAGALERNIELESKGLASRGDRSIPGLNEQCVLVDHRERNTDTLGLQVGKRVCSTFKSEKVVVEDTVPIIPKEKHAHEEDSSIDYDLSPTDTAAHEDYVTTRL
# [19] = target: T5, Short transient receptor potential channel 4; assay: mouse TRPC4 channel activators, dose response, cell-based, HEK293 TRPC4/mu-opioid, Fluo-4 calcium (AID 434937); format: functional
# [20] = target: T3, Dual specificity protein phosphatase 6
# [21] = target: T2, Tyrosine-protein phosphatase non-receptor type 7; format: functional
# [22] = target: T4, Dual specificity protein phosphatase 3; assay: SAR VHR1 Fluorescent Assay for In Vitro dose response studies. [Related pubchem assays (depositor defined):AID1654, AID1661, AID1878, AID1992, AID2004, AID2070, AID2085]; format: functional
# Hexokinase = Hexokinase (Trypanosoma brucei, UniProt Q38C41); assay: Confirmation assay for inhibitors of Trypanosoma brucei hexokinase 1-Analogue-first series. [Related pubchem assays (depositor defined):AID1430, AID1632, AID2516, AID2560, AID2579, AID2600, AID449725, AID492951]; format: functional
# [23] = target: T6, Voltage-gated N-type calcium channel alpha-1B subunit/Amyloid beta A4 precursor protein-binding family A member 1 (Homo sapiens, UniProt Q00975+Q02410); format: protein assay
# [24] = target: T6, Voltage-gated N-type calcium channel alpha-1B subunit/Amyloid beta A4 precursor protein-binding family A member 1; format: protein assay; remark: listed apart in the source
# [25] = target: T7, Alkaline phosphatase, tissue-nonspecific isozyme (Homo sapiens, UniProt P05186); assay: human TNAP enzyme inhibitors, SAR follow-up, biochemical, luminescent, dose response (AID 1056)
# T7 sequence (P05186 whole entry): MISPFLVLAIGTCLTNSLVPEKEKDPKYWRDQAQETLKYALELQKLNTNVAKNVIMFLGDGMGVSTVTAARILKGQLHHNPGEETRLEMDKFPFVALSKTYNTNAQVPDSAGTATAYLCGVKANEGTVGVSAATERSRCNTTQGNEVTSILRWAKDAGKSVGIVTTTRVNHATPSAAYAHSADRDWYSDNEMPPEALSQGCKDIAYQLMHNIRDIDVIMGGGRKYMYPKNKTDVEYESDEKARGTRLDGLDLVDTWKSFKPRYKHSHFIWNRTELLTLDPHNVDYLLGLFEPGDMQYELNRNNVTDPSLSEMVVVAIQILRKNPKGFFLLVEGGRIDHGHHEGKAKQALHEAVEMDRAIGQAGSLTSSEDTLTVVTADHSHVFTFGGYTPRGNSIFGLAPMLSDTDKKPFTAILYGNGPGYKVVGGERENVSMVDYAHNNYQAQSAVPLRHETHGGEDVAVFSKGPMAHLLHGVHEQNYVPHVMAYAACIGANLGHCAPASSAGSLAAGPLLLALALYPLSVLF
# [26] = target: Alkaline phosphatase, placental type (Homo sapiens, UniProt P05187); assay: PLAP enzyme inhibitors, confirmation, biochemical, luminescence (AID 1512); format: functional
# [27] = target: T2, Tyrosine-protein phosphatase non-receptor type 7; assay: SAR analysis of chemical inhibitors of HePTP using a Fluorescent assay - Set 2. [Related pubchem assays (depositor defined):AID1059, AID1077, AID1661, AID2085, AID521]; format: functional
# [28] = target: T4, Dual specificity protein phosphatase 3; assay: SAR VHR1 Fluorescent Assay for In Vitro dose response studies Set 2. [Related pubchem assays (depositor defined):AID1654, AID1661, AID1878]; format: functional
# Integrin alpha-L = Integrin alpha-L (Mus musculus, UniProt P24063); assay: modulators of CD8 T cell-vesicle binding, dose response, powder samples, mouse 2C CD8+ cells (AID 504565); format: functional
# Chain of Integrin alpha-L (P24063 whole entry): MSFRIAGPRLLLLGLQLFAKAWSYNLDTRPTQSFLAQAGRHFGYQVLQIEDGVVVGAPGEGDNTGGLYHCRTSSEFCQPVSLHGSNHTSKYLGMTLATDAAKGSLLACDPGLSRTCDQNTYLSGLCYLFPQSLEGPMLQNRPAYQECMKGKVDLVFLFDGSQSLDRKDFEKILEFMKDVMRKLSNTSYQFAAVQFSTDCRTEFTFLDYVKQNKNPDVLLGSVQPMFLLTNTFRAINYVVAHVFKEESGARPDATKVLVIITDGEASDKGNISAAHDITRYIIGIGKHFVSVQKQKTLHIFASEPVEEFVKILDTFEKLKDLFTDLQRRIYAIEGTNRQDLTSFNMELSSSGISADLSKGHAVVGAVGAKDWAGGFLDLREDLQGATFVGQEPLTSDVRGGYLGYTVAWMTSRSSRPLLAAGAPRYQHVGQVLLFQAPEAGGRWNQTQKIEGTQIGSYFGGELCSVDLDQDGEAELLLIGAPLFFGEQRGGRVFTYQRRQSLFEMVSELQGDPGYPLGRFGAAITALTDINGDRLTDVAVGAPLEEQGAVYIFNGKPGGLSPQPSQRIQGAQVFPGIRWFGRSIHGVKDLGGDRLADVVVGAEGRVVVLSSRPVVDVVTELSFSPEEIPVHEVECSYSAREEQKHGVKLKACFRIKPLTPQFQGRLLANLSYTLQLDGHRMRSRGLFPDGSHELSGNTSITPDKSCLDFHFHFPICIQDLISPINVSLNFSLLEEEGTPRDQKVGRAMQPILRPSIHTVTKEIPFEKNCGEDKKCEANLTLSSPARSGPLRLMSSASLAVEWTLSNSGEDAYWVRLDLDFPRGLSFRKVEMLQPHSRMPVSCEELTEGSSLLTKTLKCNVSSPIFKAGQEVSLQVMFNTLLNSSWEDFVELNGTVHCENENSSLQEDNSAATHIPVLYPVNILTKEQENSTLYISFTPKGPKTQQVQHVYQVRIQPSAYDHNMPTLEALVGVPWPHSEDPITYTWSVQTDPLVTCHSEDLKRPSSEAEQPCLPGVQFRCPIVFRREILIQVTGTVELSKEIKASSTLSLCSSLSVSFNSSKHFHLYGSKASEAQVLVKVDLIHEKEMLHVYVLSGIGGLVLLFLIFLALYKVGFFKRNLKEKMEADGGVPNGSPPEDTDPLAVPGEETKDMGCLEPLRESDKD
# T4 sequence (P51452 whole entry): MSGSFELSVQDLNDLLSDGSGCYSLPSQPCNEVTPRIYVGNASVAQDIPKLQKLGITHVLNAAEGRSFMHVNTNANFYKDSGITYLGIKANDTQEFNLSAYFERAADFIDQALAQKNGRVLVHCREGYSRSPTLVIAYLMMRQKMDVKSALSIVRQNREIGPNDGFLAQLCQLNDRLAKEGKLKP
# T6 sequence (Q00975 whole entry): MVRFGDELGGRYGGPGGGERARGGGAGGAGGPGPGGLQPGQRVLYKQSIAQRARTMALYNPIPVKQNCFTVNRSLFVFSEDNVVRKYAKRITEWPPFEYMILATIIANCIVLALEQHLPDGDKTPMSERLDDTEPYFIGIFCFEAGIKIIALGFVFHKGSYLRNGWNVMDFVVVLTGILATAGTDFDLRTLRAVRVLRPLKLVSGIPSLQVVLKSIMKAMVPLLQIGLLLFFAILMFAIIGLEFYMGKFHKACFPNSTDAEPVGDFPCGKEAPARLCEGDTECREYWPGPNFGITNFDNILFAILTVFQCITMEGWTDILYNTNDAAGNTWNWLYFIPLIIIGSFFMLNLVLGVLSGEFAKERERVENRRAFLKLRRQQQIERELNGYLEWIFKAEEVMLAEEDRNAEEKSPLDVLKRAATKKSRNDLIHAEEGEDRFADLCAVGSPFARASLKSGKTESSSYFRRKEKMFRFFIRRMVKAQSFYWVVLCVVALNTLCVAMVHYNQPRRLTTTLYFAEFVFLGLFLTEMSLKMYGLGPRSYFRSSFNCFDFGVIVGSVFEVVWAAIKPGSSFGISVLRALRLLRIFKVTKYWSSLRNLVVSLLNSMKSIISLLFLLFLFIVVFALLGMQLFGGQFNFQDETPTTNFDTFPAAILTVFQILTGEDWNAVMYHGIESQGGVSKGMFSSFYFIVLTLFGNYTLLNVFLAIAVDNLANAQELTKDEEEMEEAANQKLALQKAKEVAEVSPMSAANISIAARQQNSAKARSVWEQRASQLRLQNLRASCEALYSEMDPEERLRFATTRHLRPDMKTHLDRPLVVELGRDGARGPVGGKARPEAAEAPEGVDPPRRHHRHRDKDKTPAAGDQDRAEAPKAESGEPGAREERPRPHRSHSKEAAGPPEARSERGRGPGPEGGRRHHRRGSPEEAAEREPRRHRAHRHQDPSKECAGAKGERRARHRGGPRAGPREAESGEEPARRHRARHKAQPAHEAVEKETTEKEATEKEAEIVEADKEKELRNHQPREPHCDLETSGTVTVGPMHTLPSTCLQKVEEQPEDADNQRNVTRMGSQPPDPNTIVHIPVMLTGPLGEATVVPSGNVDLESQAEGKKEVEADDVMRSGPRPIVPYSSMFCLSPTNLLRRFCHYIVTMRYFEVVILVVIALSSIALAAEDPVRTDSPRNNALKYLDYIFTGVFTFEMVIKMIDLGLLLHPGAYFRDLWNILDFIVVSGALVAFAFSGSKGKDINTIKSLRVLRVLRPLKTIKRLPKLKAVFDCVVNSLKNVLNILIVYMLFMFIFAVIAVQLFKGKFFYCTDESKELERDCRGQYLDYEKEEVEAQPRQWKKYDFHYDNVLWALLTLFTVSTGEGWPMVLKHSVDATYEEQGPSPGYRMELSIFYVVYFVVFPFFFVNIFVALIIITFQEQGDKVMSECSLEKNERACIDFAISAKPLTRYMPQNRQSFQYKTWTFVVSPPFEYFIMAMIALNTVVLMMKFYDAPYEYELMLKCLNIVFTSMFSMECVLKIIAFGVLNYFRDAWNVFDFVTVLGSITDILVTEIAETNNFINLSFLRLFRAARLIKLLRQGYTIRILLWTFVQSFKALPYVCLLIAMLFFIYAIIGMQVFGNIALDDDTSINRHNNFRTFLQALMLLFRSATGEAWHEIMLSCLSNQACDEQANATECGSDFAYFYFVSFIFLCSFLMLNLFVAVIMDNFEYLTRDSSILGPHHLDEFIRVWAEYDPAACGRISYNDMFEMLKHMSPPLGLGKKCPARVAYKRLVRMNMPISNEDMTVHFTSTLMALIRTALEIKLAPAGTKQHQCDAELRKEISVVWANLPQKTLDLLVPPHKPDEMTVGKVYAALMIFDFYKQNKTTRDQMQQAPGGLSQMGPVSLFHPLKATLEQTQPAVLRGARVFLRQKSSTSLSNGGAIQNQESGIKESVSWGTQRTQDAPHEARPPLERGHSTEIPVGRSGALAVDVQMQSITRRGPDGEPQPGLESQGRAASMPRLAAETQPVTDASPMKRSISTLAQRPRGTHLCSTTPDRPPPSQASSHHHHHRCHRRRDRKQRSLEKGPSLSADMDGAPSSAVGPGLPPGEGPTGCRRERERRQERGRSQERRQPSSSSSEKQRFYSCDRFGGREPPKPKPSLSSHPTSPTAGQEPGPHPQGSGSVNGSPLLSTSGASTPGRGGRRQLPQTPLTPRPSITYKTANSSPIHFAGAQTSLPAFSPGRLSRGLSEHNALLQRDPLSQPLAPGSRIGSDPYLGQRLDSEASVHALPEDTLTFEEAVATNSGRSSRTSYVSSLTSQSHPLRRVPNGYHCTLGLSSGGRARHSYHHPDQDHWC
# T6 sequence (Q02410 whole entry): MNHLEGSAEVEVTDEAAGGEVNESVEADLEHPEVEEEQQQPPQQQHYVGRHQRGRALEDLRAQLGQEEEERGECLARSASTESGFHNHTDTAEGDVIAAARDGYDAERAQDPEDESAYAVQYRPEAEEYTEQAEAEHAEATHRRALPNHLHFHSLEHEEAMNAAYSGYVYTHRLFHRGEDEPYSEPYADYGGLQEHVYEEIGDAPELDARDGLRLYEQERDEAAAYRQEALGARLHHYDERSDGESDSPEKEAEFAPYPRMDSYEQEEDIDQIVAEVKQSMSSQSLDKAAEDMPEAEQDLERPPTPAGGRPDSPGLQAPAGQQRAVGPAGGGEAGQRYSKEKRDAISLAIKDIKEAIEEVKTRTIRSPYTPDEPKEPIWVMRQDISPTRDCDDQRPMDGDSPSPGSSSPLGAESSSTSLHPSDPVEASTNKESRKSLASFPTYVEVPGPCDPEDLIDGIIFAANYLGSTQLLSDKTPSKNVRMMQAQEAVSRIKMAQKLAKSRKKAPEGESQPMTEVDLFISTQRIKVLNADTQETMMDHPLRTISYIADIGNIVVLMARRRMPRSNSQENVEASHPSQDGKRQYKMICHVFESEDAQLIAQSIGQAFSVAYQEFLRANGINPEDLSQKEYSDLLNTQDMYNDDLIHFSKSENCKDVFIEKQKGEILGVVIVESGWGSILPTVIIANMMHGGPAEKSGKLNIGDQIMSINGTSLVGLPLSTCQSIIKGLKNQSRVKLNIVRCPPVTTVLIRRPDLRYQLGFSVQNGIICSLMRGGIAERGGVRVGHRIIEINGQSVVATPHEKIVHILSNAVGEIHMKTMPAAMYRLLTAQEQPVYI
# Chain of Alkaline phosphatase, placental type (P05187 whole entry): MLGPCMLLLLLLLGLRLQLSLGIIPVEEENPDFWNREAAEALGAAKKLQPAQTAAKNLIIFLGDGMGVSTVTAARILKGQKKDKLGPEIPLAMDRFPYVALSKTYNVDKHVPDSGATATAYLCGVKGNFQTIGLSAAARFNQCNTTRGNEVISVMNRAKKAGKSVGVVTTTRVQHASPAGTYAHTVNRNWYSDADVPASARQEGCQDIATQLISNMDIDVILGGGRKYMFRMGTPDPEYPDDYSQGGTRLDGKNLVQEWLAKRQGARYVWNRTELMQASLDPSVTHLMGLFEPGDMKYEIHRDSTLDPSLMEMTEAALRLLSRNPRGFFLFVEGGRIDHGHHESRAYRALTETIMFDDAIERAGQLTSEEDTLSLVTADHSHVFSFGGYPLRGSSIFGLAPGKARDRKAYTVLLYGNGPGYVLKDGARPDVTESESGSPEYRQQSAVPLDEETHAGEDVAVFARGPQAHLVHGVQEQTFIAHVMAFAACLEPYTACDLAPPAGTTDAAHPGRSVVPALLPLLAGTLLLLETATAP
smiles,measurement,setting,value
CCN1C/C(=C/c2ccc(OC)c(O)c2)C(=O)/C(=C/c2ccc(OC)c(O)c2)C1,EC50,[1],0.38 µM (active)
same,EC50,BJ [2],1.35 µM (inconclusive)
same,IC50,[3],12.9 µM (inactive)
same,EC50,[4],0.374 µM (inconclusive)
same,EC50,BJ [5],0.38 µM (active)
same,IC50,[6],> 80 µM (inactive)
same,EC50,[7],0.221 µM (active)
same,CC50,HeLa,> 3.67 µM (not active)
same,IC50,[8],0.67 µM (active)
same,EC50,BJ [9],1.78 µM (inconclusive)
same,EC50,[10],4.84 µM (active)
same,EC50,BJ [11],1.25 µM (inconclusive)
same,AC50,INS1,4.09 µM (active)
same,IC50,[12],8.47 µM (active)
same,EC50,[13],1.34 µM (active)
Cc1ccc2c(nc3s/c(=C\c4ccc(-c5ccccc5C(=O)O)o4)c(=O)n32)c1C,IC50,[14],> 100 µM (not active)
same,IC50,[15],2.2 µM (active)
same,IC50,[16],35.3 µM (active)
same,IC50,[17],2.94 µM (active)
same,EC50,[18],5.31 µM (active)
same,EC50,[19],6.68 µM (active)
same,IC50,[20],22 µM (active)
same,IC50,[21],3.88 µM (active)
same,IC50,[22],5.71 µM (active)
COc1ccc(C(=O)Nc2cc(Cl)c(C)cc2C(=O)O)cc1,IC50,Hexokinase,10.3 µM (active)
COc1ccc2cc(/N=C/c3nc(-c4ccc(C)cc4)oc3O)cnc2c1,IC50,[23],10.3 µM (active)
same,IC50,[24],> 50 µM (inactive)
COc1ccc(-c2nnc(SCC(=O)c3ccc(O)c(O)c3)n2-c2ccc(Cl)cc2)cc1,IC50,[25],> 100 µM (inactive)
same,IC50,[26],25 µM (active)
COc1cccc(CN2CCN(C(=S)Nc3ccc(S(N)(=O)=O)cc3)CC2)c1,IC50,[27],> 100 µM (inactive)
same,IC50,[28],> 100 µM (inactive)
COc1ccc(S(=O)(=O)N2CCCC2C(=O)Nc2ccc(C(C)=O)cc2)cc1 (configuration not stated),EC50,Integrin alpha-L,0.04 µM (active)
